PubChem BioAssay AID1632 (University of Pittsburgh Molecular Library Screening Center, 2009)
Results filed as inconclusive are left out.

target: hexokinase 1 [Trypanosoma brucei]; experiment: T. brucei hexokinase 1 inhibitor potency, dose response, biochemical, IC50 (AID 1632); settings: recombinant TbHK1 enzyme assay, absorbance read-out

| Structure (SMILES) | IC50 |
| --- | --- |
| O=[N+]([O-])c1cc(/C=N\Nc2nccs2)ccc1O | 2.69 µM |

same assay, conditions: recombinant TbHK1 enzyme assay, absorbance read-out; inhibition; at 100 µM; stronger effect = higher value

| Structure (SMILES) | inhibition |
| --- | --- |
| Cc1ccccc1-n1sc2cc(F)ccc2c1=O | 87.8% |
| O=c1c2ccccc2sn1-c1ccccc1 | 22.3% |
| O=C(Cn1sc2ccccc2c1=O)NC12CC3CC(CC(C3)C1)C2 | 74.6% |
| Cc1ccc(CNC(=O)CCS(=O)(=O)c2ccc(Br)cc2)cc1 | 82.3% |
| COc1cc(/C=C(\C#N)c2nc3c(s2)CCCC3)ccc1O | 42.4% |
| O=C(O)CCCCC1CCSS1 (centres undefined) | 96.4% |
| COc1ccc(C(=O)Nc2cc(Cl)ccc2C(=O)O)cc1 | 75.7% |
| CCOC(=O)Cc1csc(-n2sc3ccccc3c2=O)n1 | 46.9% |
| O=[N+]([O-])c1cc(/C=N\Nc2nccs2)ccc1O | 33.3% |
| C/C(=C/CCC(C)[C@H]1CC[C@@]2(C)C3=C(CC[C@]12C)[C@@]1(C)CCC(=O)C(C)(C)[C@@H]1CC3)C(=O)O (some centres undefined) | 55.3% |
| CCCCc1ccc(/C=C2/C(=O)ON=C2c2ccccc2)s1 | 32.1% |
| COC(=O)c1ccccc1NC(=O)CCS(=O)(=O)c1ccc(Br)cc1 | 71.7% |
| CCCCCCCCCCCNC(=O)c1ccoc1C | 73.4% |
